# From PMC7558026, “Exploring and applying the substrate promiscuity of a C-glycosyltransferase in the chemo-enzymatic synthesis of bioactive C-glycosides” (Nature Communications, 2020)
# Residue numbers refer to the chain shown, from its start. Where “and” joins values, the source holds several entries; their conditions need not be identical. Equal entries are not always repeated.
# B1: AbCGT (Aloe vera) (protein)
# chain: MSNSGRPHVALLPSAGMGHLTPFCRLAALLSSRGGGDLDVSFITAEPTVSLKEYLQIRDLLSSFPSIKSHRFKVPELSPSQFPSSPDPFFQQWESIRRCAHLLPPLLASATALIIDTASASAVLPVAKQLNIPAYILFTSSASMLSLVAHFPSHVISSTSPSAPLMSNILIPGLKHPVPAAWVPPPLHVPGHIFSTLTVDNGRCLPEADGVIINTFDALEPEVLAALNGGRVAHGLPRVFAVGPLVAPPPPQQMEETGGGDYPIAWLDRQRDKSVVYVSFGSRTAMSPEQIRELAAGLERSGCSFLWVIKTKKVDRDEEETDLGALLGEGYVERVKGRGLVVNGWVEQEEILRHRAVGGFVSHCGWNSVTEAAVAGVRVLCWPRMGDQRLNAEVVRRSGVGVWMEEWSWEAEGGVVGGEEIGRRVKEMMEDEGLRDSAERVAEEARVALGVGGTSSKEMEEFISRIMMGS
# Legend:
# Assay type in all cases: biochemical, Aloe barbadensis
# AbCGT [1] = target: T1, AbCGT (Aloe vera, UniProt A0A7G9P699); assay: Glycosyltransferase activity assay, purified AbCGT (wild type) with aglycon acceptors and UDP-Glc; details: for conversion rates, O,N,S-glycosylation / conversion rates, di-C-glycosylation / conversion rates, mono-C-glycosylation: aglycon acceptor with UDP-Glc, pH 7.4, 30 °C, up to 12 h, Reaction-1 to -3
# AbCGT [2] = target: T1, AbCGT; assay: Kinetic parameters of AbCGT (wild type); details: acceptor varied, saturating UDP-Glc, pH 7.4, 30 °C
# Experimental: (§1) The reactions terminated by the addition of 200 μL of ice-cold methanol. Subsequently, samples were centrifuged at 15,000 × g for 30 min to collect the supernatant, and aliquots were analyzed by HPLC as described above. All experiments were performed in triplicate. The value of Km was calculated with the method of Lineweaver–Burk plot.
# AbCGT V183L = assay: Glycosyltransferase activity of AbCGT variant V183L; details: pH 7.4, 30 °C, 12 h, Reaction-1 to -3
# Experimental: (§2) The reaction mixture contained 0.5 mM sugar donors (1.0 mM for di-glycosylation), 0.25 mM aglycons, 50 mM Tris-HCl (pH 7.4), and 50‒100 μg of purified AbCGT in a final volume of 100 μL. Due to the instability of some acceptors in the buffer of pH 11.0, the reactions were performed under the physiological conditions (pH 7.4, 30 °C) to compare the catalytic activities of AbGT27 with different substrates under the same conditions. The reactions were performed at 30 °C for up to 12 h and terminated by the addition of 200 μL of ice-cold methanol. Subsequently, samples were centrifuged at 15,000 × g for 30 min to collect the supernatant, and aliquots were analyzed by HPLC-UV/ESIMS. HPLC analysis was performed on a Shiseido CAPCELL PAK C18 MG III column (250 mm × 4.6 mm I.D., 5 μm, Shiseido Co., Ltd., Japan) at a flow rate of 1 mL min^‒1. The mobile phase was a gradient elution of solvents A (0.1% formic acid aqueous solution) and B (methanol). The gradient programs were used for the analysis of the reactions (Supplementary Table 6). The conversion rates of the enzyme reactions were calculated from peak areas of glycosylated products and substrates as analyzed by HPLC. To facilitate inferential statistical analysis, three parallel assays were routinely performed; the means ± SD from triplicate analyses are reported here. […]
# AbCGT V183D = target: T2, AbCGT V183D (Aloe vera, UniProt A0A7G9P699, V183D); assay: Glycosyltransferase activity of AbCGT variant V183D
# T2 sequence (A0A7G9P699 1-470 V183D): B1 chain with V183D
# Experimental: (§3) The reaction mixture contained 0.5 mM sugar donors (1.0 mM for di-glycosylation), 0.25 mM aglycons, 50 mM Tris-HCl (pH 7.4), and 50‒100 μg of purified AbCGT in a final volume of 100 μL. Due to the instability of some acceptors in the buffer of pH 11.0, the reactions were performed under the physiological conditions (pH 7.4, 30 °C) to compare the catalytic activities of AbGT27 with different substrates under the same conditions. The reactions were performed at 30 °C for up to 12 h and terminated by the addition of 200 μL of ice-cold methanol. Subsequently, samples were centrifuged at 15,000 × g for 30 min to collect the supernatant, and aliquots were analyzed by HPLC-UV/ESIMS. HPLC analysis was performed on a Shiseido CAPCELL PAK C18 MG III column (250 mm × 4.6 mm I.D., 5 μm, Shiseido Co., Ltd., Japan) at a flow rate of 1 mL min^‒1. The mobile phase was a gradient elution of solvents A (0.1% formic acid aqueous solution) and B (methanol). The gradient programs were used for the analysis of the reactions (Supplementary Table 6). The conversion rates of the enzyme reactions were calculated from peak areas of glycosylated products and substrates as analyzed by HPLC. To facilitate inferential statistical analysis, three parallel assays were routinely performed; the means ± SD from triplicate analyses are reported here.
# (§4) Site-saturation mutagenesis of AbCGT at residue 183 was performed by PCR using pET28a-AbCGT as a template and the corresponding degenerate primers, which are listed in Supplementary Table 5. PCR products were purified and transformed into Trans1-T1 (DE3) E. coli. The sequences of pET28a-AbCGT mutants were confirmed by sequencing, and transformed into Transetta (DE3) E. coli for heterologous expression following protein purification.
# AbCGT V183C = assay: Glycosyltransferase activity of AbCGT variant V183C; details: pH 7.4, 30 °C, 12 h, Reaction-1 to -3
# Experimental: as §2
# AbCGT [3] = target: T1, AbCGT; assay: Glycosyltransferase activity assay, purified AbCGT (wild type) with aglycon acceptors and UDP-Glc; details: pH 7.4, 30 °C, 12 h, Reaction-1 to -3
# AbCGT V183R = assay: Glycosyltransferase activity of AbCGT variant V183R; details: pH 7.4, 30 °C, 12 h, Reaction-1 to -3
# Experimental: as §2
# AbCGT V183N = assay: Glycosyltransferase activity of AbCGT variant V183N; details: pH 7.4, 30 °C, 12 h, Reaction-1 to -3
# Experimental: as §2
# AbCGT V183M = assay: Glycosyltransferase activity of AbCGT variant V183M; details: pH 7.4, 30 °C, 12 h, Reaction-1 to -3
# Experimental: as §2
# AbCGT V183E = target: T3, AbCGT V183E (Aloe vera, UniProt A0A7G9P699, V183E); assay: Glycosyltransferase activity of AbCGT variant V183E
# T3 sequence (A0A7G9P699 1-470 V183E): B1 chain with V183E
# Experimental: as §3, §4
# AbCGT V183Q = assay: Glycosyltransferase activity of AbCGT variant V183Q; details: pH 7.4, 30 °C, 12 h, Reaction-1 to -3
# Experimental: as §2
# [4] = substrate: O=C(CCc1ccc(O)cc1)c1c(O)cc(O)cc1O; assay: Kinetic parameters of AbCGT (wild type); details: other: acceptor varied, UDP-Glc as donor, pH 7.4, 30 °C
# Experimental: as §1
# [5] = substrate: O=C1C[C@@](O)(c2ccc(O)cc2)Oc2cc(O)cc(O)c21; assay: Kinetic parameters of AbCGT (wild type); details: other: acceptor varied, UDP-Glc as donor, pH 7.4, 30 °C
# Experimental: as §1
# [6] = substrate: CC(=O)c1c(O)cc(O)cc1O; assay: Kinetic parameters of AbCGT (wild type); details: other: acceptor varied, UDP-Glc as donor, pH 7.4, 30 °C
# Experimental: as §1
# [7] = V183D, pH 7.4, 30 °C, 12 h, Reaction-1 to -3
# [8] = V183E, pH 7.4, 30 °C, 12 h, Reaction-1 to -3
molecule,measurement,setting,value
"CC(=O)c1c(O)cc(O)cc1O [Compound 11, phloracetophene]","conversion rates, O,N,S-glycosylation",AbCGT [1],0%
same,"conversion rates, di-C-glycosylation",AbCGT [1],100%
same,"conversion rates, mono-C-glycosylation",AbCGT [1],0%
same,Kcat,AbCGT [2],2.4 s⁻¹
"O=C1CC(O)(c2ccc(O)cc2)Oc2cc(O)cc(O)c21 (stereo not drawn) [Compound 23, 2-hydroxynaringenin]","conversion rates of 2-hydroxynaringenin, C-glycosylation",AbCGT V183L,83% and 80% and 76.5%
same,"conversion rates of 2-hydroxynaringenin, O-glycosylation",AbCGT V183L,17% and 20% and 23.5%
same,"conversion rates of 2-hydroxynaringenin, C-glycosylation",AbCGT V183D; [7],99.7% and 99.5%
same,"conversion rates of 2-hydroxynaringenin, O-glycosylation",AbCGT V183D; [7],0.3% and 0.5%
same,V183D/yield of C-glycoside(%),AbCGT V183D; reaction-1,99.3%
same,V183D/yield of O-glycoside(%),AbCGT V183D; reaction-1,0.7%
same,V183D/yield of C-glycoside(%),AbCGT V183D; reaction-2,99.5%
same,V183D/yield of O-glycoside(%),AbCGT V183D; reaction-2,0.5%
same,V183D/yield of C-glycoside(%),AbCGT V183D; reaction-3,99.2%
same,V183D/yield of O-glycoside(%),AbCGT V183D; reaction-3,0.8%
same,"conversion rates, O,N,S-glycosylation",AbCGT [1],16.7% and 14.4% and 17.2%
same,"conversion rates, di-C-glycosylation",AbCGT [1],0%
same,"conversion rates, mono-C-glycosylation",AbCGT [1],83.3% and 85.6% and 82.8%
same,WT/yield of C-glycoside(%),AbCGT [1]; reaction-1,82%
same,WT/yield of O-glycoside(%),AbCGT [1]; reaction-1,18.7%
same,WT/yield of C-glycoside(%),AbCGT [1]; reaction-2,84.9%
same,WT/yield of O-glycoside(%),AbCGT [1]; reaction-2,16.2%
same,WT/yield of C-glycoside(%),AbCGT [1]; reaction-3,83.2%
same,WT/yield of O-glycoside(%),AbCGT [1]; reaction-3,17.8%
same,"conversion rates of 2-hydroxynaringenin, C-glycosylation",AbCGT V183C,85.3% and 83.5%
same,"conversion rates of 2-hydroxynaringenin, O-glycosylation",AbCGT V183C,14.7% and 16.5%
same,"conversion rates of 2-hydroxynaringenin, C-glycosylation",AbCGT [3],85.9% and 83.4% and 85%
same,"conversion rates of 2-hydroxynaringenin, O-glycosylation",AbCGT [3],14.1% and 16.6% and 15%
same,"conversion rates of 2-hydroxynaringenin, C-glycosylation",AbCGT V183R,64.9% and 75.1% and 70.5%
same,"conversion rates of 2-hydroxynaringenin, O-glycosylation",AbCGT V183R,3.4% and 2.7% and 2.9%
same,"conversion rates of 2-hydroxynaringenin, C-glycosylation",AbCGT V183N,95.8% and 95.1% and 94.3%
same,"conversion rates of 2-hydroxynaringenin, O-glycosylation",AbCGT V183N,4.2% and 4.9% and 5.7%
same,"conversion rates of 2-hydroxynaringenin, C-glycosylation",AbCGT V183M,80.2% and 82.7% and 79.5%
same,"conversion rates of 2-hydroxynaringenin, O-glycosylation",AbCGT V183M,19.8% and 17.3% and 20.5%
same,"conversion rates of 2-hydroxynaringenin, C-glycosylation",AbCGT V183E; [8],99.8% and 99.6%
same,"conversion rates of 2-hydroxynaringenin, O-glycosylation",AbCGT V183E; [8],0.2% and 0.4%
same,V183E/yield of O-glycoside(%),AbCGT V183E; reaction-1,0% and 0.5%
same,V183E/yield of O-glycoside(%),AbCGT V183E; reaction-2,0% and 0.3%
same,V183E/yield of O-glycoside(%),AbCGT V183E; reaction-3,0% and 0.8%
same,"conversion rates of 2-hydroxynaringenin, C-glycosylation",AbCGT V183Q,88.9% and 88.2%
same,"conversion rates of 2-hydroxynaringenin, O-glycosylation",AbCGT V183Q,11.1% and 11.8%
B1,Km,[4],146.0 ± 10.2 µM
same,kcat,[4],2 ± 0.138 s⁻¹
same,Km,[5],414.5 ± 23.7 µM
same,Km,[6],176.2 ± 11.7 µM
same,kcat,[6],2.4 ± 0.152 s⁻¹
